Columns and labels:
Format in all cases: cell-based
[1] = system: Bovine myoblasts; assay: Differentiation to mature muscle cells by myogenin immunostaining; details: LPA 10 or 25 μM added daily in serum-free medium
Description: Isolated bovine myoblasts were plated in a culture medium without adding serum at a culture density of 10,000 cells per well in a 96 well plate in triplicate wells. The cells were allowed to adhere for 24 hours, when LPA was added at a concentration of 0, 10 or 25 μM in serum-free medium. LPA was added daily until harvesting. Myogenin was used as a marker of differentiation to mature muscle cells. To determine the degree of differentiation to mature muscle cells, cultures were fixed in 4% paraformaldehyde for 10 min and then washed with PBS. Cells were incubated with PBS/0.2% BSA/0.1% Triton-X100 for 20 min followed by incubation with an anti-myogenin antibody (Abcam, mouse, 1/150) for 1 h at room temperature. After 3 washes with PBS/0.2% BSA, cells were incubated with secondary antibodies (goat anti-rabbit Alexa488, 1/800; goat anti-mouse Alexa555, 1/800, Invitrogen) for 30 min at room temperature. Nucleus was stained with DAPI.

[2] = system: Bovine myoblasts; assay: Proliferation rate by EdU incorporation (FACS) after LPA; details: 10 μM LPA, 24 hours; compared to vehicle-treated cells; FIG. 5
Description: In another experiment, bovine myoblasts were plated at a culture density of 10,000 cells per well in a 96 well plate in triplicate wells. The cells were allowed to adhere for 24 hours, when 10 μM LPA was added in the medium. Cells were subsequently harvested. After 24 hours, the proliferation rate was measured by EdU incorporation using a commercially available nucleoside pulse labeling kit such as the Click-iT-EdU kit (ThermoFisher). Briefly, cells were treated with 3 μM EdU, incubated at room temperature for 6 hours and detected according to the manufacturer's instructions, Cells were labeled with Alexa Fluor® 647 azide and analyzed using Fluorescence-Activated Cell Sorting (FACS) using 633 nm excitation and a 660/20 nm emission filter.

[3] = system: Bovine myoblasts; assay: Cell count by bright field cell imaging after LPA, subconfluent and confluent cultures; details: 96 well plate, LPA 0, 10 or 25 μM
Description: Bovine myoblasts were isolated from a bovine skeletal muscle tissue using the protocol described above. Isolated myoblasts were plated at a culture density of 2000 (subconfluent) or 10,000 (confluent) cells per well in a 96 well plate in triplicate wells. The cells were allowed to adhere for 24 hours, at which time LPA was added at a concentration of 0, 10 or 25 μM in the medium. Cells were subsequently harvested and counted by bright field cell imaging (Cytation 5 live cell imaging, analyzed with Lionheart software). […] Data shown are mean+/−SD. Significance was determined by the Student's T test.

What does the source list for lysophosphatidic acid [LPA]?
expression of myogenin (marker of differentiation) [1]: reduced expression of myogenin; increase in percentage of cells in the S-phase [2]: 216%; increase of cells in the subconfluent culture ([3]; 2000 cells per well, FIG. 4A): 309%; increase of cells in the confluent culture ([3]; 10,000 cells per well, FIG. 4B): 130%

— patent US12709738B2, “Compositions and methods for increasing the culture density of a cellular biomass within a cultivation infrastructure” (The Upside Group Inc., priority 2017, dated 2026)
